Test results published in patent EP4361137A1, “PRUNE1 INHIBITORS AND THERAPEUTIC USE THEREOF” (CEINGE Biotecnologie Avanzate Franco Salvatore s.c. a r.l., priority 2022, dated 2024).

Legend:
[1] = test system: D425-MED-Luc; assay: Orthotopic xenograft of D425-MED-Luc cells in nude mice; assay type: in vivo; conditions: 6 mg/kg/day intraperitoneally; for toxicity by total body weight, treated vs control mice / intracranial tumor growth (bioluminescence, photon emission) / PRUNE1 levels in cerebellar tumours (immunoblotting): HCl salt; for intracranial tumor growth (bioluminescence, photon emission): T21, after 14 days of treatment; for PRUNE1 levels in cerebellar tumours (immunoblotting): n.3 treated vs n.3 vehicle mice
Method: Starting after seven days from tumour implantation (i.e., once the tumours were established) the mice (grouped according to their bioluminescence values) were injected intraperitoneally with LEO-AA7.5(S)T at 6 mg/kg/day, or with water as the vehicle for the control group. After n.28 days from tumour implantation (i.e., after three weeks of AA7.5 treatment), the mice were sacrificed, and the organs were collected.
D425-MED-luc [Ferrucci et al., 2018] were implanted into the right cerebellar hemisphere of female (n.14) athymic nude mice (5 weeks old), as previously described [Asadzadeh et al., 2018], to establish orthotopic intracerebellar D425-MED-Luc xenograft models. Nude mice were anaesthetised with Ketamine/ Xylazine (87.5 mg/kg, 12.5 mg/kg, respectively). The mice were then placed in a stereotactic frame by hooking their incisors onto the frame hold. A small skin incision (length, 1 mm) and a burr hole (diameter, 0.7 mm) were created using a microsurgical drill (Fine Science Tools, Foster City, CA, USA). D425-MED-Luc cells (1 ×10^5)were resuspended in 10 µL PBS and injected slowly through the burr hole into the right cerebellar hemisphere (stereotactic coordinates from Bregma: anteroposterior, 5.5 mm; right lateral, 2.1 mm; dorsoventral 5.0 mm), with a steady force over 30 s, using a 10-AL, 26-gauge Hamilton Gastight model 1701RN syringe needle (SigmaAldrich) that was inserted perpendicular to the cranial surface. The incision was sutured using Safil polyglycolic acid synthetic absorbable suture (6/0). The mice were kept on a warming blanket after the surgery, to help them to maintain their body temperature. Their mobility and respiratory patterns were observed continuously, and once the mice had recovered from the anaesthesia; they were place in a sterile housing cage. The mice were monitored daily for development of potential neurological deficits. Seven days after the implantation of the cells, the mice were imaged, and tumour growth was evaluated by bioluminescence acquisition using an imaging system (IVIS 3D Illumina; Xenogen/ Caliper). For the acquisitions, the mice were anaesthetised by inhalational of isoflurane, and the D-luciferin (122799; PerkinElmer) (15 mg/mL stock) was injected intraperitoneally (100 µL per 10 g body weight). At 5 min from the luciferin injection, the mice were imaged for 3 min. To quantify the bioluminescence, the integrated fluxes of photons (p/s) within each area of interest were determined using the Living Images Software Package 3.2 (Xenogen-Perkin Elmer). For LEO-AA7.5(S)T in-vivo treatment, starting after seven days from tumour implantation (i.e., once the tumours were established) the mice (grouped according to their bioluminescence values) were injected intraperitoneally with LEO-AA7.5(S)T at 6 mg/kg/day, or with water as the vehicle for the control group. After 28 days from tumour implantation (i.e., after three weeks of AA7.5 treatment), the mice were sacrificed, and the organs were collected.

[2] = test system: D425-MED cells; assay: Real-time cell proliferation assay (cell index, xCELLigence); assay type: cell-based, human; conditions: D425-Med cells
Method: J774A.1 murine macrophages (referred to as J774 cells; ATCC: #TIB-67), MMTV-Prune1-Wnt1 cells were grown in high-glucose Dulbecco's modified Eagle's medium (DMEM; Euroclone) supplemented with 20% (v/v) FBS, 2 mM L-glutamine, and 1% (v/v) antibiotics (Pen/Strep). D425-MED, D425-MED-Luc and […] cells were grown in high-glucose Dulbecco's modified Eagle's medium (DMEM; Euroclone) and Iscove's Modified Dulbecco's Medium (IMDM; Sigma) at 1:1 (v/v) dilution supplemented with 20% (v/v) FBS, 2 mM L-glutamine, 1% non-essential amino acid solution (M7145; Sigma-Aldrich/Merck), and 1% (v/v) antibiotics (Pen/Strep). The cells were grown at 37 °C in a humidified atmosphere of 95% air, 5% CO2 (v/v).
D425.MED and MMTV-Prune1/Wnt1 cells were plated and treated with increasing concentrations of LEO-AA7.5(S)T for 24 hours. Water-treated cells were used as negative control for the experiments.
Cellular proliferation rates were determined with the xCELLigence system (Roche). D425-MED, MATH-Prune1/TP53-/- and MMTV-Prune1/Wnt1 cells (8 × 10^3) were treated with increasing concentrations of LEO-AA7.5(S)T, harvested, and then added to a single well of an xCELLigence E-plate 16. The proliferation rates were determined at 2-min intervals by measuring the impedance changes across the electrodes at the bottoms of the wells. These cell index values were calculated by the xCELLigence RTCA software. with vehicle-treated cells were the negative control. Impedance was measured every 2 min over 24 hours. The IC50 values were calculated through nonlinear regression analysis performed with Graph Pad Prism 9 ([inhibitor] vs. response (three parameters). Data are means ± SD of three independent experiments.

[3] = test system: human and murine Prune1; assay: Immunoblotting of MATH1-Prune1/TP53-/- cells; assay type: cell-based; conditions: 10 µM, 24 hours
Method: Cells for immunoblotting analysis were washed in cold PBS and lysed in cell lysis buffer [20 mM sodium phosphate (pH 7.4), 150 mM NaCl, 10% (v/v) glycerol, 1% (w/v) sodium deoxycholate, 1% (v/v) Triton X-100] supplemented with protease inhibitors (Roche). The resulting cell lysates were cleared by centrifugation at 16,200g for 10 min at room temperature, and the supernatants were re- moved and assayed for protein concentrations with the Protein Assay Dye Reagent (Bio-Rad). The cell lysates (30 µg) were resolved by SDS-polyacrylamide gel electrophoresis (SDS-PAGE) gels of different percentages, which depended on the molecular weights of the proteins of interest. The proteins were then electrophoretically transferred to polyvinylidene difluoride (PVDF) membranes (Millipore). After 1 hour in blocking solution with 5% (w/v) dry milk fat in PBS or 5% (w/v) BSA (Sigma-Aldrich) in tris-buffered saline [both of which contained 0.02% (v/v) Tween 20] (TBS-Tween), the PVDF mem- branes were incubated with the required primary antibody overnight at 4°C: anti-PRUNE1 (1:250; Ferrucci et al., 2018), or anti- β-actin (1:10,000; A5441, Sigma-Aldrich). […] The peak areas of the bands were measured on the densitometry plots, and the relative proportions (percentages) were calculated. […]

[4] = listed as (S)-(1-(4-((4-methoxybenzyl)amino)-1,3,5-triazin-2-yl)piperidin-3-yl)methanol HC

`COc1ccc(CNc2ncnc(N3CCC[C@H](CO)C3)n2)cc1.Cl` [LEO-AA7.5(S)T, (S)-(1-(4-((4-methoxybenzyl)amino)-1,3,5-triazin-2-yl)piperidin-3-yl)methanol HCl salt] was tested, and the “EMT in cerebellar tumours (N-cadherin loss, increased E-cadherin)” value [1] was “inhibition of EMT”, the “activated PTEN in cerebellar tumours (immunoblotting)” value [1] was “overexpression” and the “nuclear phosphorylated SMAD2/3 and OTX2 in cerebellar tumours (immunoblotting)” value [1] was “inhibition”. For the same molecule, the “toxicity by total body weight, treated vs control mice” value [1] was “No significant differences”, the “intracranial tumor growth (bioluminescence, photon emission)” value [1] was “impairment of tumour growth” and the “intracranial tumor growth (bioluminescence, photon emission)” value [1, 4] was “significantly decreased”. The “treated mice showing metastases in the spinal cord” value ([1]; control mice 7 out of 7) was “two out of seven”, the “toxicity by total body weight, treated vs control mice” value [1, 4] was “no decrease in total body weight” and the “PRUNE1 levels in cerebellar tumours (immunoblotting)” value [1] was “downregulation of Prune1”. The “PRUNE1 levels in cerebellar tumours (immunoblotting)” value [1, 4] was “reduced PRUNE1 levels”, the “cell proliferation rate, combination with Vincristine” value ([2]; 10 µM added to 10 nM or 1 nM Vincristine) was “reduces the cell proliferation rate” and the “inhibition of cell proliferation, combination with Seclidemstat [SP-2577]” value ([2]; 10 µM plus 22.5 µM Seclidemstat) was “enhance the inhibition of cell proliferation”. The “half maximal inhibitory concentration (IC50) for the inhibition of cell proliferation index” value ([2]; impedance every 2 min over 24 h) was 71 µM, the “human and murine Prune1 levels (immunoblotting)” value [3] was “reduced human and murine Prune1 levels” and the “nuclear phosphorylated SMAD2 and OTX2 (immunoblotting)” value [3] was “inhibition”.
